Our source for the GI50 values is USRE46511E1, “Fused pyrimidine derivatives for inhibition of tyrosine kinase activity” (HANMI SCIENCE CO., LTD., priority 2010, dated 2017).

Holding throughout (assay type): cell-based
Assay [1] deals with NCI-H1975 (EGFR L858R/T790M). Nature of the assay: Inhibition test for growth of cancer cell expressing EGFR (MTS), NCI-H1975. The note with it: Homo sapiens; NCI-H1975 cells, 48 hours, MTS; read-out: GI50 NCI-H1975 EGFR L858R/T790M.
The test system of another assay is A431 (EGFR WT). The assay is described as follows: Inhibition test for growth of cancer cell expressing EGFR (SRB), A431.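 Note: cells in 96-well plates exposed to tenfold serial dilutions from 100 µM down to 10^−6 µM, DMSO under 1%, SRB staining read as absorbance at 540 nm.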 The note with it: Homo sapiens, A-431; A431 cells, 72 hours, SRB; read-out: GI50 A431 EGFR WT.
The test system of assay [2] is HCC827 (EGFR DelE746_A750). The assay is described as follows: Inhibition test for growth of cancer cell expressing EGFR (SRB), HCC827.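 Note: cells in 96-well plates exposed to tenfold serial dilutions from 100 µM, fixed with trichloroacetic acid, SRB-stained, absorbance read at 540 nm, DMSO under 1%.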 The note with it: Homo sapiens, HCC827, 72 h, HCC827 cells, 72 hours, SRB; read-out: GI50 HCC827 EGFR DelE746_A750.
Procedure: (§1) A431 cell line was incubated in a high-glucose DMEM (Dulbecco's Modified Eagle's Medium) supplemented with 10% fetal bovine serum (FBS) and 1% penicillin/streptomycin (Gibco BRL), and HCC827 and NCI-H1975 cell lines were incubated in an RPMI medium supplemented with 10% FBS, 1% penicillin/streptomycin and 1% sodium pyruvate.
(§2) The cancer cell lines stored in a liquid nitrogen tank were each quickly thawed at 37° C., and centrifuged to remove the medium. The resulting cell pellet was mixed with a culture medium, incubated in a culture flask at 37° C. under 5% CO2 for 2 to 3 days, and the medium was removed. The remaining cells were washed with DPBS (Dulbecco's Phosphate Buffered Saline) and separated from the flask by using Tripsin-EDTA. […] 100 μl of the diluted cell solution was added to each well of a 96-well plate, and incubated at 37° C. under 5% CO2 for 1 day.
(§3) In case that the test compound was not soluble in DMSO, 1% HCl was added thereto and treated in a 40° C. water bath for 30 mins until a complete dissolution was attained. The DMSO solution containing test compound was diluted with a culture medium to a final concentration of 100 μM, and then diluted 10 times serially to 10^−6 μM (a final concentration of DMSO was less than 1%).
(§4) The medium was removed from each well of the 96-well plate. And then, 100 μl of a test compound solution was added to each well holding the cultured cells, and the plate was incubated at 37° C. under 5% CO2 for 72 hours (except that NCI-H1975 cells were incubated for 48 hours). After removing the medium from the plate, 50 μA of 10% trichloroacetic acid was added to each well, and the plate was kept at 4° C. for 1 hour to fix the cells to the bottom of the plate. The added 10% trichloroacetic acid solution was removed from each well, the plate was dried, 100 μA of an SRB (Sulforhodamine-B) dye solution at a concentration of 0.4% dissolved in 1% acetic acid was added thereto, and the resulting mixture was reacted for 10 mins at room temperature. After removing the dye solution, the plate was washed with water, and well dried. When the dye solution was not effectively removed by water, 1% acetic acid was used. 150 μA of 10 mM trisma base was added to each well, and the absorbance at 540 nm wavelength was determined with a microplate reader.

Procedure for A431 (EGFR WT): as §1, §2, §3, §4

As for `C=CC(=O)Nc1cccc(Oc2nc(Nc3ccc(N4CCN(C)CC4)cc3F)nc3ccsc23)c1` [Example 4], the GI50 in assay [1] was 50 to 100 nM; with A431 (EGFR WT), above 1000 nM; in assay [2], 50 to 100 nM.

Consider `C=CC(=O)Nc1cccc(Oc2nc(Nc3ccc(N4CCN(C)CC4)c(C)c3)nc3ccsc23)c1` [Example 8], for which the results for the GI50 (in assay [1]; in the assay on A431 (EGFR WT); in assay [2]) were below 50 nM, above 1000 nM and below 50 nM, respectively.

Consider `C=CC(=O)Nc1cccc(Oc2nc(Nc3ccc(N4CCN(CC)CC4)cc3)nc3ccsc23)c1` [Example 10], for which the GI50 in assay [1] was below 50 nM; in the assay on A431 (EGFR WT), 100 to 1000 nM; in assay [2], below 50 nM.

Turning to `C=CC(=O)Nc1cccc(Oc2nc(Nc3ccc(N4CCN(C5CCCCC5)CC4)cc3)nc3ccsc23)c1` [Example 13], the figures for the GI50 (in assay [1]; in the assay with A431 (EGFR WT); in assay [2]) were below 50 nM, 100 to 1000 nM and below 50 nM, respectively.

Turning to `C=CC(=O)Nc1cccc(Oc2nc(Nc3ccc(N4CCN(S(C)(=O)=O)CC4)cc3)nc3ccsc23)c1` [Example 23], the GI50 in assay [1] is below 50 nM; in the assay with A431 (EGFR WT) it was above 1000 nM; in assay [2], 50 to 100 nM.

As to `C=CC(=O)Nc1cccc(Oc2nc(Nc3ccc(N4CCN(S(=O)(=O)CC)CC4)cc3)nc3ccsc23)c1` [Example 24], the GI50 in assay [1] was 50 to 100 nM; with A431 (EGFR WT), above 1000 nM; in assay [2], below 50 nM.

Turning to `C=CC(=O)Nc1cccc(Oc2nc(Nc3ccc(N4CCN(C5CCN(C)CC5)CC4)cc3)nc3ccsc23)c1` [Example 26], the GI50 in assay [1] is below 50 nM; in the assay on A431 (EGFR WT) it was above 1000 nM; in assay [2] it was below 50 nM.

For `C=CC(=O)Nc1cccc(Oc2nc(Nc3ccc(N4CCSCC4)cc3)nc3ccsc23)c1` [Example 30], the GI50 in assay [1] was below 50 nM; with A431 (EGFR WT), above 1000 nM; in assay [2], 100 to 1000 nM.

As for `C=CC(=O)Nc1cccc(Oc2nc(Nc3ccc(N4CC[S+]([O-])CC4)cc3)nc3ccsc23)c1` [Example 31], the figures for the GI50 (in assay [1]; with A431 (EGFR WT); in assay [2]) were below 50 nM, above 1000 nM and below 50 nM, respectively.

Consider `C=CC(=O)Nc1cccc(Oc2nc(Nc3ccc(N4CCS(=O)(=O)CC4)cc3)nc3ccsc23)c1` [Example 32], for which the GI50 in assay [1] was below 50 nM; in the assay on A431 (EGFR WT), above 1000 nM; in assay [2], below 50 nM.

On to `C=CC(=O)Nc1cccc(Oc2nc(Nc3ccc(N4CCCCC4)cc3)nc3ccsc23)c1` [Example 37], for which the GI50 is below 50 nM in assay [1], above 1000 nM in the assay with A431 (EGFR WT) and 100 to 1000 nM in assay [2].

For `C=CC(=O)Nc1cccc(Oc2nc(Nc3ccc(C4CCN(C)CC4)cc3)nc3ccsc23)c1` [Example 52], the results for the GI50 (in assay [1]; in the assay with A431 (EGFR WT); in assay [2]) were below 50 nM, above 1000 nM and below 50 nM, respectively.

For the compound `C=CC(=O)Nc1cccc(Oc2nc(Nc3ccc(C4CCN(C(C)C)CC4)cc3)nc3ccsc23)c1` [Example 54], the GI50 in assay [1] is below 50 nM; in the assay on A431 (EGFR WT), above 1000 nM; in assay [2], below 50 nM.

For the compound `C=CC(=O)Nc1cccc(Oc2nc(Nc3ccc(OCCN4CCOCC4)cc3)nc3ccsc23)c1` [Example 65], the GI50 in assay [1] is below 50 nM; in the assay with A431 (EGFR WT), above 1000 nM; in assay [2], below 50 nM.

In the case of `C=CC(=O)Nc1cccc(Oc2nc(Nc3ccc(N4CCC(N5CCOCC5)CC4)c(F)c3)nc3ccsc23)c1` [Example 126], the GI50 in assay [1] and in assay [2] was below 50 nM throughout.

Take `C=CC(=O)Nc1cccc(Oc2nc(Nc3ccc(OCCOC)c(F)c3)nc3ccsc23)c1` [Example 131]: the values for the GI50 in assay [1] and in assay [2] were below 50 nM and 50 to 100 nM, respectively.

Regarding `C=CC(=O)Nc1cccc(Oc2nc(Nc3ccc(OCCN(C)C)c(F)c3)nc3ccsc23)c1` [Example 132], the GI50 in assay [1] and in assay [2] was below 50 nM throughout.

For the compound `C=CC(=O)Nc1cccc(Oc2nc(Nc3ccc(OCCN(CC)CC)c(F)c3)nc3ccsc23)c1` [Example 133], the GI50 in assay [1] and in assay [2] was below 50 nM each time.

`C=CC(=O)Nc1cccc(Oc2nc(Nc3ccc(OCCN4CCN(C)CC4)c(F)c3)nc3ccsc23)c1` [Example 134]: the GI50 in assay [1] and in assay [2] was below 50 nM throughout.

Regarding `C=CC(=O)Nc1cccc(Oc2nc(Nc3ccc(OCCN4CCOCC4)c(F)c3)nc3ccsc23)c1` [Example 135], the GI50 is below 50 nM in assay [1] and 50 to 100 nM in assay [2].

As to `C=CC(=O)Nc1cccc(Oc2nc(Nc3ccc(OC4CCN(C)CC4)c(F)c3)nc3ccsc23)c1` [Example 136], the GI50 in assay [1] and in assay [2] was below 50 nM each time.

Take `C=CC(=O)Nc1cccc(Oc2nc(Nc3ccc(N4CCC(N5CCCC5)CC4)c(Cl)c3)nc3ccsc23)c1` [Example 138]: the GI50 in assay [1] and in assay [2] was below 50 nM each time.

`C=CC(=O)Nc1cccc(Oc2nc(Nc3ccc(N4CCC(N5CCOCC5)CC4)c(Cl)c3)nc3ccsc23)c1` [Example 139]: the GI50 in assay [1] and in assay [2] was below 50 nM throughout.

For `C=CC(=O)Nc1cccc(Oc2nc(Nc3ccc(C(=O)N(C)C)c(Cl)c3)nc3ccsc23)c1` [Example 143], the GI50 was below 50 nM in assay [1] and 50 to 100 nM in assay [2].

`C=CC(=O)Nc1cccc(Oc2nc(Nc3ccc(C(=O)N4CCN(S(=O)(=O)CC)CC4)c(Cl)c3)nc3ccsc23)c1` [Example 144]: the GI50 in assay [1] is 50 to 100 nM; in assay [2] it was below 50 nM.

For the compound `C=CC(=O)Nc1cccc(Oc2nc(Nc3ccc(N4CCN(CCO)CC4)cn3)nc3ccsc23)c1` [Example 156], the GI50 is 50 to 100 nM in assay [1] and below 50 nM in assay [2].

As for `C=CC(=O)Nc1cccc(Oc2nc(Nc3ccc(C4(N)CC4)cc3)nc3ccsc23)c1` [Example 160], the GI50 in assay [1] and in assay [2] was below 50 nM each time.

Take `C=CC(=O)Nc1cccc(Oc2nc(Nc3ccc(NC(=O)N4CCN(C)CC4)cc3)nc3ccsc23)c1` [Example 172]: the GI50 in assay [1] is below 50 nM; in assay [2], 50 to 100 nM.

Regarding `C=CC(=O)Nc1cccc(Oc2nc(Nc3ccc(CN4CCC4)cc3)nc3ccsc23)c1` [Example 175], the GI50 in assay [1] and in assay [2] was below 50 nM throughout.

`C=CC(=O)Nc1cccc(Oc2nc(Nc3ccc(CCO)cc3)nc3ccsc23)c1` [Example 190]: the GI50 in assay [1] and in assay [2] was below 50 nM in each case.

On to `C=CC(=O)Nc1cccc(Oc2nc(Nc3ccc(CCN(C)C)cc3)nc3ccsc23)c1` [Example 191], for which the GI50 in assay [1] and in assay [2] was below 50 nM throughout.

In the case of `C=CC(=O)Nc1cccc(Oc2nc(Nc3ccc(CN4CCC(N(C)C)CC4)c(F)c3)nc3ccsc23)c1` [Example 196], the GI50 is 50 to 100 nM in assay [1] and below 50 nM in assay [2].

Regarding `C=CC(=O)Nc1cccc(Oc2nc(Nc3ccc(CN4CCN(C)CC4)c(F)c3)nc3ccsc23)c1` [Example 197], the GI50 in assay [1] and in assay [2] was below 50 nM in each case.

On to `C=CC(=O)Nc1cccc(Oc2nc(Nc3ccc(NC(=O)N4CCN(C)CC4)c(F)c3)nc3ccsc23)c1` [Example 201], for which the figures for the GI50 in assay [1] and in assay [2] were 50 to 100 nM and below 50 nM, respectively.

Take `C=CC(=O)Nc1cccc(Oc2nc(Nc3ccc(CN4CCN(C5CCN(C)CC5)CC4)c(Cl)c3)nc3ccsc23)c1` [Example 202]: the GI50 in assay [1] was below 50 nM; in assay [2], 50 to 100 nM.

Consider `C=CC(=O)Nc1cccc(Oc2nc(Nc3ccc(CN(C)C)cc3C)nc3ccsc23)c1` [Example 205], for which the GI50 in assay [1] and in assay [2] was below 50 nM in each case.

As to `C=CC(=O)Nc1cccc(Nc2nc(Nc3ccc(N4CCN(C(C)C)CC4)cc3)nc3ccsc23)c1` [Example 208], the GI50 in assay [1] and in assay [2] was below 50 nM each time.

With `C=CC(=O)Nc1cccc(Nc2nc(Nc3ccc(C4CCN(C)CC4)cc3)nc3ccsc23)c1` [Example 209], the GI50 in assay [1] and in assay [2] was below 50 nM throughout.

In the case of `C=CC(=O)Nc1cccc(Nc2nc(Nc3ccc(C4CCCN(C)C4)cc3)nc3ccsc23)c1` (stereo not shown) [Example 210], the GI50 in assay [1] and in assay [2] was below 50 nM each time.

On to `C=CC(=O)Nc1cccc(Nc2nc(Nc3ccc(OCCN(C)C)cc3)nc3ccsc23)c1` [Example 211], for which the GI50 in assay [1] and in assay [2] was below 50 nM throughout.

Regarding `C=CC(=O)Nc1cccc(Nc2nc(Nc3ccc(OCCCN(C)C)cc3)nc3ccsc23)c1` [Example 212], the GI50 in assay [1] and in assay [2] was 50 to 100 nM throughout.

Regarding `C=CC(=O)Nc1cccc(Nc2nc(Nc3ccc(CCN(C)C)cc3)nc3ccsc23)c1` [Example 213], the GI50 in assay [1] was below 50 nM; in assay [2] it was 50 to 100 nM.

In the case of `C=CC(=O)Nc1cccc(Nc2nc(Nc3ccc(CCN4CCN(C)CC4)cc3)nc3ccsc23)c1` [Example 214], the GI50 in assay [1] was below 50 nM; in assay [2], 50 to 100 nM.

Regarding `C=CC(=O)Nc1cccc(Nc2nc(Nc3ccc(C4CCN(C)CC4)c(F)c3)nc3ccsc23)c1` [Example 216], the GI50 in assay [1] and in assay [2] was below 50 nM throughout.

`C=CC(=O)Nc1cccc(Nc2nc(Nc3ccc(NC4CCN(C)CC4)c(F)c3)nc3ccsc23)c1` [Example 217]: the GI50 is 50 to 100 nM in assay [1] and below 50 nM in assay [2].

Regarding `C=CC(=O)Nc1cccc(Nc2nc(Nc3ccc(CN4CCCCC4)cc3)nc3ccsc23)c1` [Example 221], the GI50 in assay [1] and in assay [2] was below 50 nM each time.

For `C=CC(=O)Nc1cccc(Sc2nc(Nc3ccc(N4CCOCC4)c(F)c3)nc3ccsc23)c1` [Example 224], the GI50 in assay [1] and in assay [2] was below 50 nM throughout.

For the compound `C=CC(=O)Nc1cccc(Sc2nc(Nc3ccc(C4CCN(C)CC4)c(F)c3)nc3ccsc23)c1` [Example 225], the GI50 in assay [1] and in assay [2] was below 50 nM throughout.

For the compound `C=CC(=O)Nc1cccc(Oc2nc(Nc3ccc(C4CCN(C)CC4)c(F)c3)nc3ccoc23)c1` [Example 235], the GI50 in assay [1] and in assay [2] was below 50 nM in each case.
